Results reported in article PMC11859928, “Design, Synthesis, and Antiproliferative Activity of Novel Indole/1,2,4-Triazole Hybrids as Tubulin Polymerization Inhibitors” (Pharmaceuticals, 2025).

Legend:
Assay in all cases: NCI one-dose assay
Assay type in all cases: cell-based
MOLT-4 = conditions: Homo sapiens, MOLT-4, Leukemia, read-out: Cell growth inhibition %
OVCAR-5 = conditions: Homo sapiens, OVCAR-5, Ovarian cancer, read-out: Cell growth inhibition %
CCRF-CEM = conditions: Homo sapiens, Leukemia, read-out: Cell growth inhibition %
ACHN = conditions: Homo sapiens, Renal cancer, read-out: Cell growth inhibition %
MALME-3M = conditions: Homo sapiens, Melanoma, read-out: Cell growth inhibition %
NCI-H23 = conditions: Homo sapiens, NCI-H23, Non-small cell lung cancer, read-out: Cell growth inhibition %
UACC-257 = conditions: Homo sapiens, UACC-257, Melanoma, read-out: Cell growth inhibition %
MDA-MB-231/ATCC = conditions: Homo sapiens, Breast cancer, read-out: Cell growth inhibition %
HL-60(TB) = conditions: Homo sapiens, Leukemia, read-out: Cell growth inhibition %
HCT-116 = conditions: Homo sapiens, HCT-116, Colon cancer, read-out: Cell growth inhibition %
HCT-15 = conditions: Homo sapiens, HCT-15, Colon cancer, read-out: Cell growth inhibition %
HT29 = conditions: Homo sapiens, HT-29, HT29, Colon cancer, read-out: Cell growth inhibition %
CAKI-1 = conditions: Homo sapiens, CAKI-1, Renal cancer, read-out: Cell growth inhibition %
MDA-MB-468 = conditions: Homo sapiens, MDA-MB-468, Breast cancer, read-out: Cell growth inhibition %
OVCAR-8 = conditions: Homo sapiens, OVCAR-8, Ovarian cancer, read-out: Cell growth inhibition %
OVCAR-4 = conditions: Homo sapiens, OVCAR-4, Ovarian cancer, read-out: Cell growth inhibition %
SN12C = conditions: Homo sapiens, Renal cancer, read-out: Cell growth inhibition %
SK-OV-3 = conditions: Homo sapiens, SK-OV-3, Ovarian cancer, read-out: Cell growth inhibition %
M14 = conditions: Homo sapiens, M14, Melanoma, read-out: Cell growth inhibition %
COLO 205 = conditions: Homo sapiens, COLO 205, Colon cancer, read-out: Cell growth inhibition %
SK-MEL-2 = conditions: Homo sapiens, SK-MEL-2, Melanoma, read-out: Cell growth inhibition %
NCI-H460 = conditions: Homo sapiens, NCI-H460, Non-small cell lung cancer, read-out: Cell growth inhibition %
SK-MEL-5 = conditions: Homo sapiens, SK-MEL-5, Melanoma, read-out: Cell growth inhibition %
NCI-H322M = conditions: Homo sapiens, Non-small cell lung cancer, read-out: Cell growth inhibition %
RPMI-8226 = conditions: Homo sapiens, RPMI-8226, Leukemia, read-out: Cell growth inhibition %
HCC-2998 = conditions: Homo sapiens, HCC-2998, Colon cancer, read-out: Cell growth inhibition %
DU-145 = conditions: Homo sapiens, DU-145, Prostate cancer, read-out: Cell growth inhibition %
UACC-62 = conditions: Homo sapiens, UACC-62, Melanoma, read-out: Cell growth inhibition %
TK-10 = conditions: Homo sapiens, TK-10, Renal cancer, read-out: Cell growth inhibition %
NCI/ADR-RES = conditions: Homo sapiens, Ovarian cancer, read-out: Cell growth inhibition %
BT-549 = conditions: Homo sapiens, BT-549, Breast cancer, read-out: Cell growth inhibition %
K-562 = conditions: Homo sapiens, K562, K-562, Leukemia, read-out: Cell growth inhibition %
SW-620 = conditions: Homo sapiens, SW-620, Colon cancer, read-out: Cell growth inhibition %
SNB-75 = conditions: Homo sapiens, SNB-75, CNS cancer, read-out: Cell growth inhibition %
PC-3 = conditions: Homo sapiens, PC-3, Prostate cancer, read-out: Cell growth inhibition %
KM12 = conditions: Homo sapiens, KM12, Colon cancer, read-out: Cell growth inhibition %

SMILES | inhibition at 10 µM (MOLT-4) [%] | inhibition at 10 µM (OVCAR-5) [%] | inhibition at 10 µM (CCRF-CEM) [%] | inhibition at 10 µM (ACHN) [%] | inhibition at 10 µM (MALME-3M) [%] | inhibition at 10 µM (NCI-H23) [%] | inhibition at 10 µM (UACC-257) [%] | inhibition at 10 µM (MDA-MB-231/ATCC) [%] | inhibition at 10 µM (HL-60(TB)) [%] | inhibition at 10 µM (HCT-116) [%] | inhibition at 10 µM (HCT-15) [%] | inhibition at 10 µM (HT29) [%] | inhibition at 10 µM (CAKI-1) [%] | inhibition at 10 µM (MDA-MB-468) [%] | inhibition at 10 µM (OVCAR-8) [%] | inhibition at 10 µM (OVCAR-4) [%] | inhibition at 10 µM (SN12C) [%] | inhibition at 10 µM (SK-OV-3) [%] | inhibition at 10 µM (M14) [%] | inhibition at 10 µM (COLO 205) [%] | also measured
COc1ccc(/C(CSc2nnc(-c3c[nH]c4ccccc34)n2-c2ccccc2)=N/O)cc1 [Compound 7g, (Z)-2-((5-(1H-Indol-3-yl)-4-phenyl-4H-1,2,4-triazol-3-yl)thio)-1-(4-methoxyphenyl) Ethanone Oxime] | 83.3 | 45 | 83.5 | 77.7 | 26.9 | 58.4 | 49.9 | 39.3 | 96.1 | 71.9 | 84.7 | 68 | 79.9 | 99.4 | 70.3 | 83.2 | 54.2 | 47.9 | 71.1 | 63.7 | inhibition at 10 µM (SK-MEL-2): 94.1%; inhibition at 10 µM (NCI-H460): 82.8%; inhibition at 10 µM (SK-MEL-5): 110%; inhibition at 10 µM (NCI-H322M): 63.6%; inhibition at 10 µM (RPMI-8226): 90.2%; inhibition at 10 µM (HCC-2998): 57.6%; inhibition at 10 µM (DU-145): 57%; inhibition at 10 µM (UACC-62): 68.6%; inhibition at 10 µM (TK-10): 57.4%; inhibition at 10 µM (NCI/ADR-RES): 61.8%; inhibition at 10 µM (BT-549): 83.5%; inhibition at 10 µM (K-562): 81.2%; inhibition at 10 µM (SW-620): 60.6%; inhibition at 10 µM (SNB-75): 36.7%; inhibition at 10 µM (PC-3): 76.9%; inhibition at 10 µM (KM12): 78.8%
Cc1ccc(/C(CSc2nnc(-c3c[nH]c4ccccc34)n2-c2ccccc2)=N/O)cc1 [Compound 7h, (Z)-2-((5-(1H-Indol-3-yl)-4-phenyl-4H-1,2,4-triazol-3-yl)thio)-1-(p-tolyl)ethanone Oxime] | 128 | 149 | 135 | 162 | 83.3 | 46.7 | 64.3 | 182 | 114 | 97.4 | 162 | 93.7 | 127 | 189 | 128 | 187 | 137 | 88.5 | 164 | 87.6 | inhibition at 10 µM (SK-MEL-2): 37.3%; inhibition at 10 µM (NCI-H460): 98%; inhibition at 10 µM (SK-MEL-5): 65.9%; inhibition at 10 µM (NCI-H322M): 142%; inhibition at 10 µM (RPMI-8226): 119%; inhibition at 10 µM (HCC-2998): 142%; inhibition at 10 µM (DU-145): 160%; inhibition at 10 µM (UACC-62): 153%; inhibition at 10 µM (TK-10): 165%; inhibition at 10 µM (NCI/ADR-RES): 168%; inhibition at 10 µM (BT-549): 176%; inhibition at 10 µM (K-562): 98.4%; inhibition at 10 µM (SW-620): 180%; inhibition at 10 µM (SNB-75): 144%; inhibition at 10 µM (PC-3): 147%; inhibition at 10 µM (KM12): 49.8%
O/N=C(\CSc1nnc(-c2c[nH]c3ccccc23)n1-c1ccccc1)c1ccc(Br)cc1 [Compound 7i, (Z)-2-((5-(1H-Indol-3-yl)-4-phenyl-4H-1,2,4-triazol-3-yl)thio)-1-(4-bromophenyl) Ethanone Oxime] | 119 | 183 | 106 | 184 | 110 | 85.9 | 109 | 184 | 136 | 136 | 193 | 177 | 194 | 195 | 142 | 183 | 177 | 150 | 168 | 141 | inhibition at 10 µM (SK-MEL-2): 166%; inhibition at 10 µM (NCI-H460): 122%; inhibition at 10 µM (SK-MEL-5): 124%; inhibition at 10 µM (NCI-H322M): 173%; inhibition at 10 µM (RPMI-8226): 113%; inhibition at 10 µM (HCC-2998): 166%; inhibition at 10 µM (DU-145): 188%; inhibition at 10 µM (UACC-62): 190%; inhibition at 10 µM (TK-10): 183%; inhibition at 10 µM (NCI/ADR-RES): 174%; inhibition at 10 µM (BT-549): 173%; inhibition at 10 µM (K-562): 111%; inhibition at 10 µM (SW-620): 186%; inhibition at 10 µM (SNB-75): 120%; inhibition at 10 µM (PC-3): 164%; inhibition at 10 µM (KM12): 97.9%
O/N=C(\CSc1nnc(-c2c[nH]c3ccccc23)n1-c1ccccc1)c1ccc(Cl)cc1 [Compound 7j, (Z)-2-((5-(1H-Indol-3-yl)-4-phenyl-4H-1,2,4-triazol-3-yl)thio)-1-(4-chlorophenyl) Ethanone Oxime] | 107 | 143 | 105 | 96.7 | 88.9 | 52.7 | 55.7 | 155 | 126 | 99.3 | 148 | 95.5 | 111 | 185 | 93.6 | 181 | 116 | 102 | 147 | 89.8 | inhibition at 10 µM (SK-MEL-2): 79.9%; inhibition at 10 µM (NCI-H460): 89.5%; inhibition at 10 µM (SK-MEL-5): 78.8%; inhibition at 10 µM (NCI-H322M): 149%; inhibition at 10 µM (RPMI-8226): 113%; inhibition at 10 µM (HCC-2998): 83%; inhibition at 10 µM (DU-145): 131%; inhibition at 10 µM (UACC-62): 143%; inhibition at 10 µM (TK-10): 123%; inhibition at 10 µM (NCI/ADR-RES): 170%; inhibition at 10 µM (BT-549): 167%; inhibition at 10 µM (K-562): 93.1%; inhibition at 10 µM (SW-620): 137%; inhibition at 10 µM (SNB-75): 52%; inhibition at 10 µM (PC-3): 138%; inhibition at 10 µM (KM12): 78.6%
